Results from patent publication US11498903B2 (BRISTOL-MYERS SQUIBB COMPANY, priority 2017, dated 2022).
pEC50: −log10 of the molar value. Like-named read-outs stand apart in the source and are kept apart here.

Molecular target: T1, human APJ receptor (Homo sapiens, UniProt P35414)
T1 construct: expressed in transfected cells
T1 sequence (P35414 1-380): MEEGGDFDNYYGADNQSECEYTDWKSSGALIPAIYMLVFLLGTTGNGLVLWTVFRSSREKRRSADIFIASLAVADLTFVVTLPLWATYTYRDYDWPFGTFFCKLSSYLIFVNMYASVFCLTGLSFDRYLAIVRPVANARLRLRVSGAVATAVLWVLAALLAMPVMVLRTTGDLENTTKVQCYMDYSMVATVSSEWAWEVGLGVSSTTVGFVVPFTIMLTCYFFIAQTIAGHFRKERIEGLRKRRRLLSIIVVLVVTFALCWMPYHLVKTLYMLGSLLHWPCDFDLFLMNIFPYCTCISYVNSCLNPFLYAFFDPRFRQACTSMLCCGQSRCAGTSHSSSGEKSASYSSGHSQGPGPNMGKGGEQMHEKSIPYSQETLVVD
Experiment: Intracellular cAMP accumulation assay (APJ hcAMP, HTRF)
Assay type: cell-based
How it was run: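 HEK293 cells stably expressing human APJ, 5,000/well, incubated 30 min at room temperature with compound plus […] and 2 μM forskolin. cAMP read by HTRF against a cAMP standard curve; EC50 from variable-slope sigmoidal fit, Ymax as % of (Pyr1)apelin-13 inhibition.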

[1] = Table 1, HEK293 cells stably expressing human APJ receptor, inhibition of forskolin-mediated cAMP production, read-out: APJ hcAMP EC50
[2] = human APJ, cAMP, potency range class, read-out: APJ cAMP Human EC50
[3] = Table 2, HEK293 cells stably expressing human APJ receptor, read-out: APJ cAMP Human EC50

| SMILES | pEC50 [1] | pEC50 [2] | pEC50 (Table 3, HEK293 cells stably expressing human APJ receptor, read-out: APJ cAMP Human EC50) | pEC50 [3] |
| --- | --- | --- | --- | --- |
| O=C(NC(c1ccccc1)C1CC1)c1ccc(-c2cc(Cl)ccc2-c2nc3ccccc3[nH]2)c(C(=O)O)c1 (single isomer, unassigned) [Example 211, 2′-(1H-1,3-benzodiazol-2-yl)-5′-chloro-4-{[cyclopropyl(phenyl)methyl]carbamoyl}-[1,1′-biphenyl]-2-carboxylic acid] | > 8.00 | > 8.00 | – | – |
| CCCC(NC(=O)c1ccc(-c2cc(Cl)ccc2-c2nc3ccccc3[nH]2)c(C(=O)O)c1)c1ccc(F)cc1 (single isomer, unassigned) [Example 215, 2′-(1H-1,3-benzodiazol-2-yl)-5′-chloro-4-{[1-(4-fluorophenyl)butyl]carbamoyl}-[1,1′-biphenyl]-2-carboxylic acid] | 6.30 to 7.00 | 6.30 to 7.00 | – | – |
| O=C(NC(c1ccccc1)C1CC1)c1ccc(-c2c(Cl)cccc2-c2nc3ccccc3[nH]2)c(C(=O)O)c1 (single isomer, unassigned) [Example 220] | > 8.00 | > 8.00 | – | – |
| CCC[C@H](NC(=O)c1ccc(-c2c(Cl)cccc2-c2nc3ccccc3[nH]2)c(C(=O)O)c1)c1ccccc1OC (single isomer, unassigned) [Example 221] | > 8.00 | > 8.00 | – | – |
| O=C(NC(c1ccc(Cl)cc1)C1CC1)c1ccc(-c2c(Cl)cccc2-c2nc3ccccc3[nH]2)c(C(=O)O)c1 (single isomer, unassigned) [Example 224] | > 8.00 | > 8.00 | – | – |
| O=C(NC(C1CCCCC1)C1CC1)c1ccc(-c2c(Cl)cccc2-c2nc3ccccc3[nH]2)c(C(=O)O)c1 (single isomer, unassigned) [Example 227] | > 8.00 | > 8.00 | – | – |
| CCCC(NC(=O)c1ccc(-c2c(Cl)cccc2-c2nc3ccccc3[nH]2)c(C(=O)O)c1)c1ccc(F)cc1 (single isomer, unassigned) [Example 228] | > 8.00 | > 8.00 | – | – |
| O=C(N[C@H](c1ccccc1)C1CC1)c1ccc(-c2c(Cl)cccc2-c2nc3ccccc3[nH]2)c(C(=O)O)c1 (single isomer, unassigned) [Example 229] | 7.00 to 8.00 | 7.00 to 8.00 | – | – |
| CCC[C@@H](NC(=O)c1ccc(-c2c(Cl)cccc2-c2nc3cc(OC)ccc3[nH]2)c(C(=O)O)c1)C1CCCCC1 (single isomer, unassigned) [Example 231] | > 8.00 | > 8.00 | – | – |
| CCC[C@H](NC(=O)c1ccc(-c2c(Cl)cccc2-c2nc3cc(OC)c(F)cc3[nH]2)c(C(=O)O)c1)c1ccc(F)cc1 (single isomer, unassigned) [Example 233] | > 8.00 | > 8.00 | – | – |
| COc1cc2nc(-c3cccc(Cl)c3-c3ccc(C(=O)N[C@H](c4ccccc4)C4CC4)cc3C(=O)O)[nH]c2cc1F (single isomer, unassigned) [Example 234] | > 8.00 | > 8.00 | – | – |
| COc1cc2nc(-c3cccc(Cl)c3-c3ccc(C(=O)NC(C4CCCCC4)C4CC4)cc3C(=O)O)[nH]c2cc1F (single isomer, unassigned) [Example 235] | > 8.00 | > 8.00 | – | – |
| CCC[C@H](NC(=O)c1ccc(-c2c(Cl)cccc2-c2nc3cc(OC)c(F)cc3[nH]2)c(C(=O)O)c1)c1ccc(Cl)cc1 (single isomer, unassigned) [Example 236] | > 8.00 | > 8.00 | – | – |
| COc1cc2nc(-c3cccc(Cl)c3-c3ccc(C(=O)N[C@H](c4ccc(Cl)cc4)C4CC4)cc3C(=O)O)[nH]c2cc1F (single isomer, unassigned) [Example 237] | > 8.00 | > 8.00 | – | – |
| CCC[C@H](NC(=O)c1ccc(-c2c(Cl)cccc2-c2nc3cc(OC)c(F)cc3[nH]2)c(C(=O)O)c1)c1ccccc1OC (single isomer, unassigned) [Example 238] | > 8.00 | > 8.00 | – | – |
| CCC[C@H](NC(=O)c1ccc(-c2c(Cl)cccc2-c2nc3cc(F)c(Cl)cc3[nH]2)c(C(=O)O)c1)c1ccc(Cl)cc1 (single isomer, unassigned) [Example 239] | > 8.00 | > 8.00 | – | – |
| O=C(N[C@H](c1ccc(Cl)cc1)C1CC1)c1ccc(-c2c(Cl)cccc2-c2nc3cc(F)c(Cl)cc3[nH]2)c(C(=O)O)c1 (single isomer, unassigned) [Example 240] | > 8.00 | > 8.00 | – | – |
| CCC[C@H](NC(=O)c1ccc(-c2c(Cl)cccc2-c2nc3cc(OC)c(F)cc3[nH]2)c(CO)c1)c1ccccc1 (stereo in doubt) [Example 131, (S)-2′-chloro-6′-(6-fluoro-5-methoxy-1H-1,3-benzodiazol-2-yl)-2-(hydroxymethyl)-N-(1-phenylbutyl)-[1,1′-biphenyl]-4-carboxamide] | – | – | 7.00 to 8.00 | – |
| CCC[C@@H](NC(=O)c1ccc(-c2cc(Cl)ccc2-c2nc3cc(OC)ccc3[nH]2)c(C(=O)O)c1)c1ccccc1 [Example 1, (R)-5′-Chloro-2′-(5-methoxy-1H-benzo[d]imidazol-2-yl)-4-((1-phenylbutyl)carbamoyl)-[1,1′-biphenyl]-2-carboxylic acid] | > 8.00 | – | – | > 8.00 |
| CCC[C@@H](NC(=O)c1ccc(-c2cc(Cl)ccc2-c2nc3ccccc3[nH]2)c(C(=O)O)c1)c1ccccc1 [Example 2, (R)-2′-(1H-Benzo[d]imidazol-2-yl)-5′-chloro-4-((1-phenylbutyl)carbamoyl)-[1,1′-biphenyl]-2-carboxylic acid] | > 8.00 | – | – | > 8.00 |
| CCC[C@@H](NC(=O)c1ccc(-c2cc(Cl)ccc2-c2nc3cc(O)ccc3[nH]2)c(C(=O)O)c1)c1ccccc1 [Example 3, (R)-5′-Chloro-2′-(5-hydroxy-1H-benzo[d]imidazol-2-yl)-4-((1-phenylbutyl)carbamoyl)-[1,1′-biphenyl]-2-carboxylic acid] | > 8.00 | – | – | > 8.00 |
| CCC[C@@H](NC(=O)c1ccc(-c2cc(Cl)ccc2-c2ncc(-c3ccccc3)[nH]2)c(C(=O)O)c1)c1ccccc1 [Example 4, (R)-5′-Chloro-2′-(4-phenyl-1H-imidazol-2-yl)-4-((1-phenylbutyl)carbamoyl)-[1,1′-biphenyl]-2-carboxylic acid] | > 8.00 | – | – | > 8.00 |
| O=C(N[C@H](CN1CCOCC1)c1ccccc1)c1ccc(-c2cc(Cl)ccc2-c2nc3ccccc3[nH]2)c(C(=O)O)c1 [Example 5, (S)-2′-(1H-benzo[d]imidazol-2-yl)-5′-chloro-4-((2-morpholino-1-phenylethyl)carbamoyl)-[1,1′-biphenyl]-2-carboxylic acid] | 7.00 to 8.00 | – | – | 7.00 to 8.00 |
| CCC[C@@H](NC(=O)c1ccc(-c2cc(Cl)ccc2-c2nc3ccccc3[nH]2)c(C(=O)NC#N)c1)c1ccccc1 [Example 6, (R)-2′-(1H-benzo[d]imidazol-2-yl)-5′-chloro-N2-cyano-N4-(1-phenylbutyl)-[1,1′-biphenyl]-2,4-dicarboxamide] | 6.30 to 7.00 | – | – | 6.30 to 7.00 |
| CCC[C@@H](NC(=O)c1ccc(-c2cc(Cl)ccc2-c2nc3ccccc3[nH]2)c(CO)c1)c1ccccc1 [Example 7, (R)-2′-(1H-benzo[d]imidazol-2-yl)-5′-chloro-2-(hydroxymethyl)-N-(1-phenylbutyl)-[1,1′-biphenyl]-4-carboxamide] | 7.00 to 8.00 | – | – | 7.00 to 8.00 |
